Reference: patent publication US9968635B2, “Treatment of skin and soft tissue infection with nitric oxide” (priority 2012, dated 2018)

What was measured:
[1] = Weight gain of carriers on bubbling nitric oxide gas; assay type: physicochemical; settings: NO gas bubbled 40 hr, 25 °C
Procedure: This example illustrates one technique for preparing a composition in accordance with one embodiment of the invention. An accurate amount of a carrier (HNC 167-62) (see below) was introduced into a system. The carrier weight used in these experiments was approximately 250 g and the vessel size was 500 ml. The vessel was equipped with a mechanical stirrer, gas inlet, and gas outlet and was previously purged with argon for about an hour. The temperature of the carrier was kept at about 25-30° C. NO gas regulated at 5 psi (1 psi is about 6,900 Pa) and was then introduced at a controlled rate of about 1 bubble/s with continuous stirring. […] After 6 hours, the weight of the carrier had increased by 0.15%, by 12 hours by 0.25%, and by 24 hours by 0.56%. These increases in weight were believed to be significant considering the relative small molecular weight of NO versus the carrier. […] The carrier also can solidify upon cooling if the carrier is initially a solid at lower temperature.
Each carrier was taken in a 500 mL three necked flask equipped with a mechanical stirrer, gas inlet and a gas outlet. The system was purged with argon for one hour at room temperature (25° C.). Then nitric oxide gas was bubbled into the system. Then, nitric oxide gas was bubbled through carrier for stipulated amount of time. The changes in weight and color were noted. […]

[2] = test system: micro-capillary blood flow to skin; assay: Laser Doppler study with closed Hilltop chamber on forearm, 10,000 ppm NO (Example 5); assay type: in vivo, human; settings: applied to the skin at 1/10% in alcohol
Description: The formulation used in these studies contained nitric oxide dispersed in a lipid matrix. […] Nitric oxide is a very rapid acting molecule, and these studies used a system that employed laser Doppler with a covered chamber. The formulation was placed into the chamber and then attached to the skin by an adhesive layer on the covering. This provided a stable measuring device as determined by multiple normal evaluations of the capillary blood flow without treatment of nitric oxide.
A known positive control, methyl nicotinate, was applied to the skin at a concentration of 1/10% in alcohol. […] The vascular dynamics are such that when the blood vessels dilate physical parameters follow Bernoulli's law. […] The laser Doppler device accurately measured these parameters.
In these studies, the participants were healthy females aged 30 to 55 years. They were in good health as determined by the medical history and were not taking any prescription medications. All study participants read and signed the informed consent statement prior to any study procedures being performed. […]
A Moor Instruments DRT4 Laser Doppler Blood Flow Monitor (Devon, England) was used in these studies. The laser Doppler technique measured blood flow in the microcapillaries of the skin that are close to the skin surface and the blood flow in underlying arterioles and venules that help to regulate skin temperature. […]

[3] = test system: capillary circulation of the skin; assay: Laser Doppler study of creams in five human subjects (Example 7); assay type: in vivo; settings: positive control formulation containing 0.1% methyl nicotinate
Description: This example illustrates delivery of nitric oxide formulations to five human subjects, using procedures and formulations similar to those discussed in Example 5. Each person served as their own control for the testing. A Moor Instruments Laser Doppler was used to determine circulation. […] The formulations used produce positive, almost immediate results when applied to the skin which, in these studies, was manifested by vasodilatation of the cutaneous vascular system. For each subject, the following creams were applied: a negative control formulation (containing no NO), 0.010 gram of a 10,000 ppm NO formulation, 0.020 gram of a 10,000 ppm NO formulation, and a positive control formulation containing 0.1% methyl nicotinate. The formulations were prepared using procedures similar to those discussed in Example 1.

## OCCCO [1,3-Propanediol, 1,3-propanediol]
[1]
  % Wt. gain: 0.09%
  Wt. Gain: 0.16 g

## COC(=O)c1cccnc1 [methyl nicotinate]
[2]
  laser Doppler response of positive control: rapid response typical of the vasodilator
[3]
  vasodilatation: vasodilatation was observed
